Results as given in patent publication US7247646B2, “Benzopyranone compounds, compositions thereof, and methods of treatment therewith” (Signal Pharmaceuticals, LLC, priority 2003, dated 2007).
Where “and” joins values, the source holds several entries; their conditions need not be identical. Equal values may be shown once. Values belong to the compound of their own block, whether it stands above or below them.

Tests used:
Assay type in all cases: cell-based
human ER-α = biological target: T1, human ER-α (Homo sapiens, UniProt P03372); assay: Inhibition of IL-6 release from U-2 OS osteosarcoma cells stably transfected with human ER-α; settings: IL-6 production (ELISA) after 2.5 ng/ml TNFα and 1 ng/ml IL-1β stimulation, 24 h; compound 0.01–1000 nM; vehicle = 100%; read-out: IC50 (nM) U2 OS (ER-α)
T1 construct: stably transfected with expression vectors for human full-length ER-α or ER-β; expressed in transfected cells
T1 sequence (P03372 1-595): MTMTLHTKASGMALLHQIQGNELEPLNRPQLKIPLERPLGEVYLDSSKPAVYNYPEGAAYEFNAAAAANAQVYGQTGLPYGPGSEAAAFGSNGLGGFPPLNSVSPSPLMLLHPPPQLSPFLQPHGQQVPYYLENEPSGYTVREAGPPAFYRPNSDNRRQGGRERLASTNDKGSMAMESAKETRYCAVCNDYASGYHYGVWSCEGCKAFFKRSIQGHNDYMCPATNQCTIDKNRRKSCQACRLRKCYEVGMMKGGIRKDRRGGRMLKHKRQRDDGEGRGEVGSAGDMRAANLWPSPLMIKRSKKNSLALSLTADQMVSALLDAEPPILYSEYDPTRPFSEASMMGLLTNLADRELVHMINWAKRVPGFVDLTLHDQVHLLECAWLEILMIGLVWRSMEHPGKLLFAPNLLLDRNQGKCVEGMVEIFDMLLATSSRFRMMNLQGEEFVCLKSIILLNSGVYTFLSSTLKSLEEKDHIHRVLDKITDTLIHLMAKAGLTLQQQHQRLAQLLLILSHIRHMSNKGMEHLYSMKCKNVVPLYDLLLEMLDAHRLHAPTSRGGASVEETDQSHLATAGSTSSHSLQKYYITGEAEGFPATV
Procedure: (§1) Illustrative Benzopyranone Compounds were tested for their ability to inhibit IL-6 release from human U-2 OS osteosarcoma cells stably transfected with human ER-α or ER-β. (Stein, B.; Yang, M. X. Mol. Cell. Biol 15: 4971–4979, 1995; Poli, V. et. al., EMBO J. 13:1189–1196, 1994). […] Benzopyranone Compounds having an IC50<100 nM are particularly useful as bone resorption inhibitors in vivo. Accordingly, the Benzopyranone Compounds, are particularly useful for the treatment of osteoporosis, Paget's disease and metastatic bone cancer. These Benzopyranone Compounds are also useful as anti-cancer agents, since elevated IL-6 levels are responsible for certain cancers such as multiple myeloma, prostate cancer, ovarian cancer, renal carcinoma and cervical carcinoma.
(§2) Human U-2 OS osteosarcoma cells (ATCC) were stably transfected with expression vectors for human full-length ER-α or ER-β using standard molecular biology techniques. Stable subclones were generated that expressed high levels of ER-α or ER-β mRNA. The expression of ER-α or ER-β was confirmed using RNase protection analysis.
(§3) Cells were plated into 96-well plates at a density of 80,000 cells per well in phenol red-free media with charcoal-stripped fetal calf serum. Twenty four hours later, cells were either treated with vehicle (0.2% DMSO) or a Benzopyranone Compound (0.01–1000 nm in 0.2% DMSO). Thirty minutes later cells were stimulated with 2.5 ng/ml TNFα and 1 ng/ml IL-1β. Twenty-four hours later the media supernatant was analyzed for cytokine production (IL-6) using commercially available ELISA kits following the manufacturer's instructions. Cytokine production in the presence of vehicle (0.2% DMSO) was set to 100%.
(§4) The results (Table 2) are expressed as an IC50 (nM) value which is the concentration of the Benzopyranone Compound sufficient to inhibit the production of IL-6 50% relative to the amount of IL-6 produced in the presence of vehicle.

human ER-β = biological target: T2, human ER-β (Homo sapiens, UniProt Q92731); assay: Inhibition of IL-6 release from U-2 OS osteosarcoma cells stably transfected with human ER-β; settings: IL-6 production (ELISA) after 2.5 ng/ml TNFα and 1 ng/ml IL-1β stimulation, 24 h; compound 0.01–1000 nM; vehicle = 100%; read-out: IC50 (nM) U2 OS (ER-β)
T2 construct: stably transfected with expression vectors for human full-length ER-α or ER-β; expressed in transfected cells
T2 sequence (Q92731 whole entry): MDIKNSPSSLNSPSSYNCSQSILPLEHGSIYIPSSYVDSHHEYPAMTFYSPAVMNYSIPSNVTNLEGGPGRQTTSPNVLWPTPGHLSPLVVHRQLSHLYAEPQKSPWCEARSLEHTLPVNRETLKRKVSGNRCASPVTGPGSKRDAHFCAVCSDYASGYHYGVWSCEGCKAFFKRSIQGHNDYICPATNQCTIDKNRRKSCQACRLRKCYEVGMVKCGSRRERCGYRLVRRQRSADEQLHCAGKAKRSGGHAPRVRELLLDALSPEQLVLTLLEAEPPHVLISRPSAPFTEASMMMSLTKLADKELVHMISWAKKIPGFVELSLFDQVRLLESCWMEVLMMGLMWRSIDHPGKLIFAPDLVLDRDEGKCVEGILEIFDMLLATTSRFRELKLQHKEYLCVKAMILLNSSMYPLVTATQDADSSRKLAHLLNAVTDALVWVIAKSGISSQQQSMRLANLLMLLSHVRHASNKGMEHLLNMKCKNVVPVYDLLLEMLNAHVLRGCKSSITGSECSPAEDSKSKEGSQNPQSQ
Procedure: as §1, §2, §3, §4

[1] = system: MCF-7 breast cancer cells; assay: Inhibition of 17β-estradiol-dependent MCF-7 breast cancer cell proliferation (3H-thymidine incorporation); settings: Homo sapiens, MCF7; with 0.1 nM 17β-estradiol, 72 h, then 3H-thymidine 4 h; compound 0.1–1000 nM
Procedure: MCF-7 cells represent an excellent in vitro system to study the effects of compounds on estrogen-dependent breast cancer growth. (May, F. E. B.; Westley, B. R. J. Biol. Chem. 262:15894–15899, 1987). Benzopyranone Compounds having an IC50<100 nM are particularly useful as anti-breast cancer agents in vivo.
MCF-7 breast carcinoma cells were plated in 24-well dishes at a density of 5×10^3 cells/well in phenol-red free DMEM:F-12 (1:1) medium containing 1% antibiotics, 0.05% mercaptoethanol, 0.01% ethanolamine, 0.42 ng/mL sodium selenite and 5% charcoal-stripped FCS.
Illustrative Benzopyranone Compounds (0.1–1000 nM in 0.2% DMSO) and 0.1 nM 17β-estradiol were added to the cultured MCF-7 breast cancer cells for 72 h. Subsequently, ^3H-labeled thymidine was added and its incorporation into cells was measured following 4 h incubation. The results (Table 2) are expressed as an IC50 (nM) value which is the concentration of the Benzopyranone Compound sufficient to inhibit the growth of MCF-7 breast cancer cells by 50% relative to controls.

SMILES: Cc1cc2c(Cc3ccc(OCCN4CCCC4)cc3)c(-c3ccc(C(F)(F)F)cc3)c(=O)oc2cc1O
IC50 (human ER-α): 13.3 nM | IC50 (human ER-β): > 1000 nM | IC50 [1]: 59.5 nM

SMILES: CC(O)c1cc2c(Cc3ccc(OCCN4CCCC4)cc3)c(-c3ccc(C(F)(F)F)cc3)c(=O)oc2cc1O (stereo not shown)
IC50 (human ER-α): 850 nM and > 1000 nM | IC50 (human ER-β): > 1000 nM

SMILES: Cc1c(O)ccc2c(Cc3ccc(OCCN4CCCC4)cc3)c(-c3ccc(C(F)(F)F)cc3)c(=O)oc12
IC50 (human ER-α): 55.5 nM | IC50 (human ER-β): < 1000 nM | IC50 [1]: 235 nM

SMILES: Cc1c(O)ccc2c(Cc3ccc(OCCN4CCCC4)cc3)c(-c3ccc(Cl)cc3Cl)c(=O)oc12
IC50 (human ER-α): 6.9 nM | IC50 (human ER-β): < 1000 nM | IC50 [1]: 35 nM

SMILES: CC(=O)c1c(O)ccc2c(Cc3ccc(OCCN4CCCC4)cc3)c(-c3ccc(Cl)cc3Cl)c(=O)oc12
IC50 (human ER-α): 5 nM | IC50 (human ER-β): < 1000 nM | IC50 [1]: 112 nM

SMILES: N#Cc1c(O)ccc2c(Cc3ccc(OCCN4CCCC4)cc3)c(-c3ccc(C(F)(F)F)cc3)c(=O)oc12
IC50 (human ER-α): 390 nM | IC50 (human ER-β): > 1000 nM

More lines, now with the values ahead:

IC50 (human ER-α): 850 nM and > 1000 nM | IC50 (human ER-β): > 1000 nM | IC50 [1]: > 1000 nM
SMILES: CC(=O)c1cc2c(Cc3ccc(OCCN4CCCC4)cc3)c(-c3ccc(C(F)(F)F)cc3)c(=O)oc2cc1O

IC50 (human ER-α): 310 nM and > 1000 nM | IC50 (human ER-β): > 1000 nM | IC50 [1]: > 1000 nM
SMILES: O=c1oc2cc(O)c(Br)cc2c(Cc2ccc(OCCN3CCCC3)cc2)c1-c1ccc(C(F)(F)F)cc1

IC50 (human ER-α): 1.7 nM | IC50 (human ER-β): > 1000 nM | IC50 [1]: 10 nM
SMILES: Cc1cc2c(Cc3ccc(OCCN4CCCC4)cc3)c(-c3ccc(Cl)cc3Cl)c(=O)oc2cc1O

IC50 (human ER-α): 39 nM | IC50 (human ER-β): < 1000 nM | IC50 [1]: 185 nM
SMILES: CC(=O)c1c(O)ccc2c(Cc3ccc(OCCN4CCCC4)cc3)c(-c3ccc(C(F)(F)F)cc3)c(=O)oc12

IC50 (human ER-α): 285 nM | IC50 (human ER-β): < 1000 nM | IC50 [1]: < 1000 nM
SMILES: Cc1c(O)ccc2c(Cc3ccc(OCCN4CCCC4)cc3)c(-c3ccc(Cl)cc3)c(=O)oc12
